Measured values: US9181259B2 (LEO PHARMA A/S, priority 2012, dated 2015)
Counter-ions that a name gives are not always drawn.

Columns and labels:
NK1 receptor = target: T1, NK1 receptor (Homo sapiens, UniProt P25103); experiment: NK1 receptor mediated intracellular [Ca2+] mobilization in U251 MG cells using FLIPR; assay type: cell-based; conditions: antagonist potency against Substance P (EC80), normalized to 100 nM Aprepitant, read-out: U251MG (FLIPR pIC50) (converted)
T1 construct: Measurement of NK1 Receptor Mediated Intracellular [Ca^2+]; Mobilization in U251 MG Cells Using FLIPR; endogenous in cells; host or cells: U251 MG cells
Procedure, shortened: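 Fluo-4-loaded U251 MG cells were preincubated with compound (0.5% DMSO final), with any agonist effect read for 5 min, then 10 min more at 37 °C before Substance P at EC80. Peak FLIPR fluorescence change was read, and IC50 came from a four-parameter fit as the midpoint between fitted top and bottom.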

[1] = Hepatic intrinsic clearance following incubation in human liver microsomes; assay type: in vitro ADME; conditions: NADPH regenerating system, 0-30 min, 37 °C
Description: Hepatic Extraction Ratio from Hepatic Intrinsic Clearance Following Incubation in Human Liver Microsomes
The general procedure consists of an automated incubation system and LC-MS/MS analysis with human liver microsomes. Human liver microsomes are thawed rapidly in a waterbath at 37° C. and kept on ice until use. The human liver microsomes are diluted with 50 mM potassium phosphate buffer pH 7.4 to a protein concentration of 0.55 mg/mL. Test compounds and positive controls (Verapamil and Dextromethorphan, positive controls for CYP3A4 for CYP2D6 isoforms, respectively) are dissolved in methanol (or other appropriate solvent, if necessary) in order to obtain a 5 mM solution which is further diluted to the concentration of 50 μM. The stock solutions are prepared immediately before the test.
5 μL of 50 μM test compounds and controls are added to 445 μL-of the 0.55 mg/mL microsomes solution and the incubation mixture are pre-warmed at 37° C. for 5 minutes.
The incubation reactions are initiated by adding 50 μL of pre-warmed NADPH regenerating system to the incubation mixtures. 50 μL-aliquots will be taken from the incubation mixtures at: 0, 3, 6, 9, 15 and 30 minutes and the reactions are stopped by adding 100 μL of ACN containing Rolipram, used as generic Internal Standard (1S). Samples are then diluted with 120 μL of Milli-Q water and centrifuged at 3000 rpm for 10 minutes, prior the LC-MS/MS analysis.
The integrated peak areas for test compounds at the selected time points are divided by the respective peak areas of the IS and the percent of parent remaining is calculated by normalizing the peak area ratio of parent to IS at 0 min. Observed rate constant (kobs) for parent degradation is calculated by determining the slope of the line of the graph of the natural log of percentage parent remaining versus time of incubation. From the rate of depletion (min-1) and volume of the incubation (mL), clearance is estimated. This is scaled for the protein in the incubation relative to that in the intact liver, for all species (mL/min/g liver).
Values for the Human in vitro Clint are expressed as mL/min/g liver.
Assuming a liver weight of 25.7 g/kg and a liver blood flow of 20.7 mL/min/kg, the hepatic extraction ratio, Eh, can be derived from the Human in vitro Clint:
E.g. a Human in vitro Clint of 2.4 mL/min/g liver corresponds to a hepatic extraction ratio of 75%.
Some compounds of the present invention were tested according to example 121.

T1 sequence (P25103 whole entry): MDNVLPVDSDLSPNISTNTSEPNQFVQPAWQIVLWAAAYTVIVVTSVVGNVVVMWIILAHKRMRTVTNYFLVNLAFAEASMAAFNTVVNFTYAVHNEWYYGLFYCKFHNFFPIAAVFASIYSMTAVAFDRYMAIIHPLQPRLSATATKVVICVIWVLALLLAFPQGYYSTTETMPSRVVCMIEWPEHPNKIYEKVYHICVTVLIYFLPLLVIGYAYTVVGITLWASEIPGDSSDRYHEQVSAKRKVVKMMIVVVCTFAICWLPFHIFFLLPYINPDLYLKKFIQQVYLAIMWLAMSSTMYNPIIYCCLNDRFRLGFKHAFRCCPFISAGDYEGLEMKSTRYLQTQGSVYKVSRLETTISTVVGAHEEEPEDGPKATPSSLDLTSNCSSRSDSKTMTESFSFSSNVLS

IC50 (NK1 receptor) [pM]	Human in vitro Clint (mL/min/g liver) [1] [mL/min/g liver]	Structure (SMILES)
603	2.8	Cc1ccccc1C1C2CCC(=O)N2CCN1C(=O)N(C)Cc1cc(C(F)(F)F)cc(C(F)(F)F)c1 (single isomer, unassigned) [Compound 18, N-{[3,5-bis(trifluoromethyl)phenyl]methyl}-N-methyl-1-(2-methylphenyl)-6-oxo-octahydropyrrolo[1,2-a]piperazine-2-carboxamide]
240	1.2	Cc1ccccc1[C@H]1[C@@H]2CC3(CCN(C)CC3)C(=O)N2CCN1C(=O)N(C)[C@H](C)c1cc(C(F)(F)F)cc(C(F)(F)F)c1 [Compound 105, (1′S,8a′S)-N-((R)-1-(3,5-bis(trifluoromethyl)phenyl)ethyl)-N,1-dimethyl-6′-oxo-1′-o-tolyltetrahydro-1′H-spiro[piperidine-4,7′-pyrrolo[1,2-a]pyrazine]-2′(6′H)-carboxamide, formic acid salt]
31.6	32	Cc1ccccc1[C@H]1[C@H]2CCC(=O)N2CCN1C(=O)N(C)[C@H](C)c1cc(C(F)(F)F)cc(C(F)(F)F)c1 (single isomer, unassigned) [Compound 75]
31.6	51	Cc1ccccc1[C@H]1[C@@H]2CCC(=O)N2CCN1C(=O)N(C)[C@H](C)c1cc(C(C)C)cc(C(F)(F)F)c1 [Compound 112, (1S,8aS)-N-((R)-1-(3-isopropyl-5-(trifluoromethyl)phenyl)ethyl)-N-methyl-6-oxo-1-o-tolylhexahydropyrrolo[1,2-a]pyrazine-2(1H)-carboxamide]
15.8	11	Cc1ccccc1[C@H]1[C@@H]2CC(CCO)(CCO)C(=O)N2CCN1C(=O)N(C)[C@@H](C)c1cc(F)cc(C(F)(F)F)c1 [Compound 92, (1S,8aS)-N-((S)-1-(3-fluoro-5-(trifluoromethyl)phenyl)ethyl)-7,7-bis(2-hydroxyethyl)-N-methyl-6-oxo-1-o-tolylhexahydropyrrolo[1,2-a]pyrazine-2(1H)-carboxamide]
31.6	56	Cc1ccccc1[C@H]1[C@@H]2CC(CCO)(CCO)C(=O)N2CCN1C(=O)N(C)[C@H](C)c1cc(C(C)C)cc(C(F)(F)F)c1 [Compound 113, (1S,8aS)-7,7-bis(2-hydroxyethyl)-N-((R)-1-(3-isopropyl-5-(trifluoromethyl)phenyl)ethyl)-N-methyl-6-oxo-1-o-tolylhexahydropyrrolo[1,2-a]pyrazine-2(1H)-carboxamide]
155	2.1	COc1cc([C@@H](CO)N(C)C(=O)N2CCN3C(=O)C(CCO)(CCO)C[C@H]3[C@@H]2c2ccccc2C)cc(C(F)(F)F)c1 [Compound 95, (1S,8aS)-N-((S)-2-hydroxy-1-(3-methoxy-5-(trifluoromethyl)phenyl)ethyl)-7,7-bis(2-hydroxyethyl)-N-methyl-6-oxo-1-o-tolylhexahydropyrrolo[1,2-a]pyrazine-2(1H)-carboxamide]
79.4	4.8	Cc1ccccc1[C@H]1[C@@H]2CC(CCO)(CCO)C(=O)N2CCN1C(=O)N(C)[C@H](CO)c1cccc(C(F)(F)F)c1 [Compound 96, (1S,8aS)-N-((S)-2-hydroxy-1-(3-(trifluoromethyl)phenyl)ethyl)-7,7-bis(2-hydroxyethyl)-N-methyl-6-oxo-1-o-tolylhexahydropyrrolo[1,2-a]pyrazine-2(1H)-carboxamide]
513	3.1	Cc1ccccc1C1C2CC(CO)CN2CCN1C(=O)N(C)Cc1cc(C(F)(F)F)cc(C(F)(F)F)c1 (single isomer, unassigned) [Compound 52, N-{[3,5-bis(trifluoromethyl)phenyl]methyl}-7-(hydroxymethyl)-N-methyl-1-(2-methylphenyl)-octahydropyrrolo[1,2-a]piperazine-2-carboxamide; methanesulfonic acid salt]
1380	9.5	Cc1ccccc1C1C2CCC(=O)N2CCN1C(=O)N(C)Cc1cc(F)cc(C(F)(F)F)c1 (single isomer, unassigned) [Compound 3, N-{[3-fluoro-5-(trifluoromethyl)phenyl]methyl}-N-methyl-1-(2-methylphenyl)-6-oxo-octahydropyrrolo[1,2-a]piperazine-2-carboxamide]
31.6	4.3	Cc1ccccc1[C@H]1[C@@H]2CC(CO)(CO)C(=O)N2CCN1C(=O)N(C)[C@H](C)c1cc(Cl)cc(C(F)(F)F)c1 [Compound 108, (1S,8aS)-N-((R)-1-(3-chloro-5-(trifluoromethyl)phenyl)ethyl)-7,7-bis(hydroxymethyl)-N-methyl-6-oxo-1-o-tolylhexahydropyrrolo[1,2-a]pyrazine-2(1H)-carboxamide]
51.3	0.8	Cc1ccccc1C1C2CC(CO)C(=O)N2CCN1C(=O)N(C)Cc1cc(C(F)(F)F)cc(C(F)(F)F)c1 (single isomer, unassigned) [Compound 22, N-{[3,5-bis(trifluoromethyl)phenyl]methyl}-7-(hydroxymethyl)-N-methyl-1-(2-methylphenyl)-6-oxo-octahydropyrrolo[1,2-a]piperazine-2-carboxamide]
112	0.34	Cc1ccccc1C1C2CC(CO)C(=O)N2CCN1C(=O)N(C)[C@H](C)c1cc(C(F)(F)F)cc(C(F)(F)F)c1 (single isomer, unassigned) [Compound 56]
148	12	Cc1ccccc1[C@H]1[C@@H]2CC(CCO)(CCO)C(=O)N2CCN1C(=O)N(C)Cc1cc(F)cc(C(F)(F)F)c1 [Compound 76, (1S,8aS)-N-(3-fluoro-5-(trifluoromethyl)benzyl)-7,7-bis(2-hydroxyethyl)-N-methyl-6-oxo-1-o-tolylhexahydropyrrolo[1,2-a]pyrazine-2(1H)-carboxamide]
347	1.9	Cc1ccccc1C1C2CC(CO)CN2CCN1C(=O)N(C)Cc1cc(C(F)(F)F)cc(C(F)(F)F)c1 (single isomer, unassigned) [Compound 49, N-{[3,5-bis(trifluoromethyl)phenyl]methyl}-7-(hydroxymethyl)-N-methyl-1-(2-methylphenyl)-octahydropyrrolo[1,2-a]piperazine-2-carboxamide]
63.1	13	Cc1ccccc1[C@H]1[C@@H]2CC(CCO)(CCO)C(=O)N2CCN1C(=O)N(C)[C@H](C)c1cccc(C(F)(F)F)c1 [Compound 88, (1S,8aS)-7,7-bis(2-hydroxyethyl)-N-methyl-6-oxo-1-o-tolyl-N-((R)-1-(3-(trifluoromethyl)phenyl)ethyl)hexa hydropyrrolo[1,2-a]pyrazine-2(1H)-carboxamide]
105	14	Cc1ccccc1[C@H]1[C@@H]2CC(CCO)(CCO)C(=O)N2CCN1C(=O)N(C)Cc1cc(Cl)cc(C(F)(F)F)c1 [Compound 79, (1S,8aS)-N-(3-chloro-5-(trifluoromethyl)benzyl)-7,7-bis(2-hydroxyethyl)-N-methyl-6-oxo-1-o-tolylhexahydropyrrolo[1,2-a]pyrazine-2(1H)-carboxamide]
112	4.6	COc1cc(CN(C)C(=O)N2CCN3C(=O)C(CCO)(CCO)C[C@H]3[C@@H]2c2ccccc2C)cc(C(F)(F)F)c1 [Compound 78, (1S,8aS)-7,7-bis(2-hydroxyethyl)-N-(3-methoxy-5-(trifluoromethyl)benzyl)-N-methyl-6-oxo-1-o-tolylhexahydropyrrolo[1,2-a]pyrazine-2(1H)-carboxamide]
